What follows are compounds tested against Human factor D (Homo sapiens (Human), UniProt P00746) (assay: Human Factor D Assay). Conditions: not given.
Type: biochemical

Human factor D, sequence (P00746 26-253): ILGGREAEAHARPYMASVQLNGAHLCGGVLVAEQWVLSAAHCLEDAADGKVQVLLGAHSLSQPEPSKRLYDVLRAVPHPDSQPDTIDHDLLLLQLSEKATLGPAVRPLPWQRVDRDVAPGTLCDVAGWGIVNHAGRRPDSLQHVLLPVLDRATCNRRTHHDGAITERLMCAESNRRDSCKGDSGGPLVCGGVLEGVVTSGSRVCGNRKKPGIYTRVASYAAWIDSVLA

| SMILES | IC50 [nM] |
| --- | --- |
| CC(=O)c1cn(CC(=O)N2C[C@H](F)C[C@H]2C(=O)Nc2cccc(Cl)c2-n2cncn2)c2ccc(Nc3cncnc3)cc12 [Compound 37, (2S,4R)-1-(2-(3-acetyl-5-(pyrimidin-5-ylamino)-1H-indol-1-yl)acetyl)-N-(3-chloro-2-(1H-1,2,4-triazol-1-yl)phenyl)-4-fluoropyrrolidine-2-carboxamide] | 1000 to 10000 |
| CC(=O)c1cn(CC(=O)N2C[C@H](F)C[C@H]2C(=O)NCc2nc3ccccc3s2)c2ccc(Nc3cncnc3)cc12 [Compound 16, (2S,4R)-1-(2-(3-acetyl-5-(pyrimidin-5-ylamino)-1H-indol-yl)acetyl)-N-(benzo[d]thiazol-2-ylmethyl)-4-fluoropyrrolidine-2-carboxamide] | 1000 to 10000 |
| CC(=O)c1cn(CC(=O)N2C[C@H](F)C[C@H]2C(=O)NC2CCc3c(F)ccc(F)c32)c2ccc(Nc3cncnc3)cc12 (stereo partly drawn) [Compound 51, (2S,4R)-1-(2-(3-acetyl-5-(pyrimidin-5-ylamino)-1H-indol-1-yl)acetyl)-N-(4,7-difluoro-2,3-dihydro-1H-inden-1-yl)-4-fluoropyrrolidine-2-carboxamide] | 1000 to 10000 |
| CC(=O)c1cn(CC(=O)N2C[C@H](F)C[C@H]2C(=O)Nc2nnc(-c3ccccc3Cl)s2)c2ccc(Nc3cncnc3)cc12 [Compound 34, (2S,4R)-1-(2-(3-acetyl-5-(pyrimidin-5-ylamino)-1H-indol-1-yl)acetyl)-N-(5-(2-chlorophenyl)-1,3,4-thiadiazol-2-yl)-4-fluoropyrrolidine-2-carboxamide] | 1000 to 10000 |

Same assay, conditions: human factor D 80 nM, substrate Z-L-Lys-SBz1 and DTNB 100 μM each, pH 7.5; read-out: IC50

| SMILES | IC50 [nM] |
| --- | --- |
| CC(=O)c1cn(CC(=O)N2C[C@H](F)C[C@H]2C(=O)NCc2cccc(Cl)c2F)c2cc(NS(=O)(=O)C(F)(F)F)ccc12 [Compound 2, (2S,4R)-1-(2-(3-acetyl-6-(trifluoromethylsulfon-amido)-1H-indol-1-yl)acetyl)-N-(3-chloro-2-fluorobenzyl)-4-fluoropyrrolidine-2-carboxamide] | < 1000 |
| CC(=O)c1cn(CC(=O)N2C[C@H](F)C[C@H]2C(=O)Nc2ccccc2-c2nc3ccccc3s2)c2ccc(Nc3cncnc3)cc12 [Compound 32, (2S,4R)-1-(2-(3-acetyl-5-(pyrimidin-5-ylamino)-1H-indol-1-yl)acetyl)-N-(2-(benzo[d]thiazol-2-yl)phenyl)-4-fluoropyrrolidine-2-carboxamide] | > 10000 |
| NC(=O)c1nn(CC(=O)N2C[C@H](F)C[C@H]2C(=O)Nc2cccc(-c3ccccc3Cl)c2F)c2ccc(Nc3cncnc3)cc12 [Compound 10, 1-(2-((2S,4R)-2-(2′-chloro-2-fluorobiphenyl-3-ylcarbamoyl)-4-fluoropyrrolidin-1-yl)-2-oxoethyl)-5-(pyrimidin-5-ylamino)-1H-indazole-3-carboxamide] | < 1000 |
| CC(=O)c1cn(CC(=O)N2C[C@H](F)C[C@H]2C(=O)NC2CCCN(c3cc(C)ccc3F)C2=O)c2ccc(Nc3cncnc3)cc12 (stereo partly drawn) [Compound 63, (2S,4R)-1-(2-(3-acetyl-5-(pyrimidin-5-ylamino)-1H-indol-1-yl)acetyl)-4-fluoro-N-(1-(2-fluoro-5-methylphenyl)-2-oxopiperidin-3-yl)pyrrolidine-2-carboxamide] | < 1000 |
| CC(=O)c1cn(CC(=O)N2C[C@H](F)C[C@H]2C(=O)Nc2ccc3ccccc3c2)c2ccc(Nc3cncnc3)cc12 [Compound 46, (2S,4R)-1-(2-(3-acetyl-5-(pyrimidin-5-ylamino)-1H-indol-1-yl)acetyl)-4-fluoro-N-(naphthalen-2-yl)pyrrolidine-2-carboxamide] | < 1000 |

— US9598446B2, “Amino compounds for treatment of complement mediated disorders” (priority 2014, dated 2017)
